Results as given in publication PMC5590075, “Synthesis, Antimicrobial, and Antioxidant Activities of Chalcogen-Containing Nitrone Derivatives from (R)-citronellal” (Medicines, 2017).
In brackets after ≈: the same amount, converted by molar mass. Read-outs that look alike come from different tables or passages of the source.

Assays:
[1] = DPPH radical scavenging; conditions: for DPPH radical scavenging, percentage of inhibition in relation to control: mean ± SD (n = 3); for DPPH radical scavenging activity (in words): 10–500 μM tested
Method: (§1) The antioxidant properties of the synthesized compounds (5a–d and 10) were evaluated by three different methods in vitro: DPPH (1,1-diphenyl-2-picryl-hydrazyl) and ABTS^+ (2,2′-azino-bis(3-ethylbenzthiazoline-6-sulfonic acid) radical scavenging ability and ferric ion reducing antioxidant power (FRAP). All drugs were dissolved in dimethyl sulfoxide (DMSO) at concentrations of 1–500 µM. These assays were performed according to the literature and details of these experiments are described elsewhere (see the ‘Results and Discussion’ section for the references). […]
(§2) 2.3. Antioxidant activity assays
(§3) The antioxidant properties of the synthesized compounds were evaluated by three different methods in vitro: DPPH and ABTS+ radical scavenging activity and ferric ion reducing antioxidant power (FRAP). All drugs were dissolved in dimethyl sulfoxide (DMSO). The experimental results were given as the means ± standard deviation (SD) to show the variations among the groups. The statistical analysis was performed using one‐way analysis of variance (ANOVA) followed by Newman‐Keuls multiple comparison test when appropriate. The differences were considered statistically significant at a probability of less than 5% (p < 0.05). All tests were performed at least three times in duplicate. The IC50 values (the concentration of sample required to scavenge 50% of the free radicals) were calculated from the graph of the scavenging effect percentage versus the […]
(§4) 2.4. Radical Scavenging Activity
To determine if compounds 5a–d and 10 present in vitro antioxidant activity against free radicals, DPPH and ABTS+ scavenging capability were evaluated at different concentrations.
The DPPH scavenging activity of compounds 5a–d and 10 (10–500 μM) was determined in accordance with the method of Sharma and Bhat and the decrease in the absorbance at 517 nm […]
(§5) The ABTS radical scavenging activity was determined according to the method described by Erel. Different concentrations of compounds 5a–d and 10 (10–500 μ M) were mixed with the ABTS+ solution, and the decrease in the absorbance at 734 nm was recorded. […]
(§6) values, as calculated by the following equation:
I% = [(Ac−As/Ac) × 100] (1) […]

[2] = system: all the tested bacteria; assay: MIC and MBC, macro dilution tube method, summary over the panel; type: cell-based; conditions: read-out: MIC and MBC values
Excerpt: (§7) To evaluate the antimicrobial potential of the synthesized compounds, the following reference strains of bacteria, that are economically important in foods, were employed: Gram-positive Listeria monocytogenes ATCC 7644, Staphylococcus aureus ATCC 25923, and Bacillus cereus ATCC 11778; Gram-negative Salmonella Typhimurium ATCC 14028, Escherichia coli O157: H7 NCTC 12900 and the clinically important Pseudomonas aeruginosa ATCC 15442.
(§8) The antimicrobial activity assay using the disk diffusion test was realized using the methodology that is recommended by the Clinical Laboratory Standards Institute (CLSI). The determination of the minimum inhibitory concentration (MIC) and minimum bactericidal concentration (MBC) was performed using the macro dilution tube method, in accordance with Rota et al., with modifications. Details of these assays are provided in the Supplemental Material. […]
(§9) 2.2. Determination of the minimum inhibitory concentration (MIC) and minimum bactericidal concentration
(§10) The MIC was determined using the macro dilution tube method, in accordance with Rota et al.
[5], with modifications. […]
(§11) The ABTS radical scavenging activity was determined according to the method described by Erel. Different concentrations of compounds 5a–d and 10 (10–500 μ M) were mixed with the ABTS+ solution, and the decrease in the absorbance at 734 nm was recorded.

[3] = ABTS radical scavenging; conditions: mean ± SD (n = 3); for IC50: read-out: ABTS radical scavenging IC50 (concentration compound required for 50% scavenging)
Method: as §1, §2, §3, §4
To determine if compounds 5a–d and 10 present in vitro antioxidant activity against free radicals, DPPH and ABTS+ scavenging capability were evaluated at different concentrations. […]
as §5, §6
I% = [(Ac−As/Ac) × 100] (1)
3. Ferric ion reducing antioxidant power (FRAP) […]
reducing capacity of compounds 5a–d and 10.
[8] with slight modifications.
They were homogenized in a 0.1 M
The supernatants were used for determination of the δ‐ALAD activity. […]
and 500 μL of distilled water. […]
and the absorbance was read at 555 nm.

[4] = system: Listeria monocytogenes ATCC 7644; assay: MIC and MBC, macro dilution tube method; type: cell-based; conditions: L. monocytogenes; for MBC: 10^5 CFU.mL^−1; for MIC: 10^5 CFU.mL^−1, 24 h
Excerpt: as §7, §8, §9, §10
(§12) [5], with modifications. The tested concentrations were 20, 18, 15, 12, 10, 7 and 5 μL.mL‐1 of each compound. In a tube with 1 mL of MH broth, was inoculated 105 UFC.mL‐1, the compound in a predetermined concentration and, to facilitate the solubility, 2 drops of TWEEN 80. The mixture was incubated at 37 °C for 24 h under stirring (150 rpm). As the positive control, MH broth and inoculum concentration in 105 UFC.mL‐1 and as the negative control MH, the inoculum concentration in 105 UFC∙mL‐1 and streptomycin (10 μg) were used. MIC was defined as the lowest concentration of […]
(§13) After 24 h, tubes with no visible growth were seeded in a […] TSA‐YE tube and incubated at 37 °C for 24 h. The MBC is the lowest concentration of compound where 99.9% of the initially inoculated cells were killed. […]
(§14) 2.4. Radical Scavenging Activity […]
as §11

[5] = system: Salmonella Typhimurium ATCC 14028; assay: MIC and MBC, macro dilution tube method; type: cell-based; conditions: S. Typhimurium; for MBC: 10^5 CFU.mL^−1; for MIC: 10^5 CFU.mL^−1, 24 h
Excerpt: as §7, §8, §9, §10, §12, §13, §14, §11

[6] = system: Pseudomonas aeruginosa ATCC 15442; assay: MIC and MBC, macro dilution tube method; type: cell-based; conditions: P. aeruginosa; for MBC: 10^5 CFU.mL^−1
Excerpt: as §7, §8, §9, §10, §12, §13, §14, §11

[7] = system: Staphylococcus aureus ATCC 25923; assay: MIC and MBC, macro dilution tube method; type: cell-based; conditions: S. mureus (so in the source); for MBC: 10^5 CFU.mL^−1; for MIC: 10^5 CFU.mL^−1, 24 h
Excerpt: as §7, §8, §9, §10, §12, §13, §14, §11

[8] = system: Bacillus cereus ATCC 11778; assay: MIC and MBC, macro dilution tube method; type: cell-based
Excerpt: as §7, §8, §9, §10, §12, §13, §14, §11

[9] = system: Escherichia coli O157: H7 NCTC 12900; assay: MIC and MBC, macro dilution tube method; type: cell-based; conditions: for MIC: E. coli O157:H7, 10^5 CFU.mL^−1, 24 h
Excerpt: as §7, §8, §9, §10, §12, §13, §14, §11

[10] = B. mereus (so in the source), 10^5 CFU.mL^−1
[11] = B. mereus (so in the source), 10^5 CFU.mL^−1, 24 h
[12] = E. coli O157:H7, 10^5 CFU.mL^−1

| Compound | DPPH radical scavenging, percentage of inhibition in relation to control ([1]; 100 μM) [%] | DPPH radical scavenging, percentage of inhibition in relation to control ([1]; 500 μM) [%] | DPPH radical scavenging activity (in words) [1] | MBC [2] [µM] | ABTS radical scavenging, percentage of inhibition in relation to control ([3]; 50 μM) [%] | ABTS radical scavenging, percentage of inhibition in relation to control ([3]; 100 μM) [%] | ABTS radical scavenging, percentage of inhibition in relation to control ([3]; 500 μM) [%] | IC50 [3] [µM] | MBC [4] [mM.mL^−1] | MBC [5] [mM.mL^−1] | MIC [5] [mM.mL^−1] | MBC [6] [mM.mL^−1] | MBC [7] [mM.mL^−1] | MIC [7] [mM.mL^−1] | MBC [8, 10] [mM.mL^−1] | MIC [8, 11] [mM.mL^−1] | MBC [9, 12] [mM.mL^−1] | MIC [9] [mM.mL^−1] | MIC [4] [mM.mL^−1] | also measured |
| --- | --- | --- | --- | --- | --- | --- | --- | --- | --- | --- | --- | --- | --- | --- | --- | --- | --- | --- | --- | --- |
| CC(C)=CCCC(C)(C/C=[N+](\C)[O-])Sc1ccccc1 (stereo not drawn) [5c, (E)-N,3,7-trimethyl-3-(phenylthio)oct-6-en-1-imine oxide] | 2.43 ± 0.61 | 29.34 ± 1.00 | demonstrated DPPH radical scavenging activity | 520 to 690 (≈ 152 to 201 µg/mL) | 4.18 ± 1.23 | 11.60 ± 1.50 | 59.51 ± 4.16 | 419 ± 35.8 | >0.69 | >0.69 | >0.69 | 0.61 | 0.69 | 0.61 | 0.69 | 0.69 | 0.52 | 0.52 | – | MBC ([9]; Escherichia coli, NCTC12900, read-out: minimal bactericidal concentration (MBC)): 520 µM (≈ 152 µg/mL) |
| CC(C)=CCCC(C)C(/C=[N+](\C)[O-])Sc1ccccc1 (stereo not drawn) [5a, (E)-N,3,7-Trimethyl-2-(phenylthio)oct-6-en-1-imine oxide] | 2.43 ± 1.08 | 20.31 ± 1.26 | demonstrated DPPH radical scavenging activity | – | 11.74 ± 0.47 | 22.84 ± 1.02 | 77.61 ± 0.81 | 297 ± 1 | – | – | – | – | >0.65 | >0.65 | 0.59 | 0.48 | >0.65 | >0.65 | – | MBC ([8]; Bacillus cereus, ATCC11778): 590 µM (≈ 172 µg/mL); MIC ([8]; Bacillus cereus, ATCC11778, read-out: minimal inhibitory concentration (MIC)): 480 µM (≈ 140 µg/mL) |
| CC(C)=CCCC(C)C/C=[N+](\C)[O-] (stereo not drawn) [5d, (E)-N,3,7-trimethyloct-6-en-1-imine oxide] | – | – | did not present effect | 1130 to 1260 (≈ 207 to 231 µg/mL) | 0.30 ± 0.33 | 3.10 ± 0.48 | 17.05 ± 0.47 | – | – | – | – | – | – | 1.26 | >1.26 | >1.26 | 1.26 | 1.13 | 1.26 | – |
| CC(C)=CCC[C@@H](C)C(/C=N/O)[Se]c1ccccc1 (stereo partly drawn) [compound 10, (3R,E)-3,7-dimethyl-2-(phenylselanyl)oct-6-enal oxime] | – | – | did not present effect | – | 87.59 ± 4.81 | 94.03 ± 1.05 | – | 25 ± 2 | >0.70 | >0.70 | >0.70 | >0.70 | >0.70 | >0.70 | >0.70 | >0.70 | >0.70 | >0.70 | >0.70 | ABTS radical scavenging, percentage of inhibition in relation to control ([3]; 5 μM): 2.39 ± 0.57%; ABTS radical scavenging, percentage of inhibition in relation to control ([3]; 10 μM): 27.81 ± 2.12 %; MIC ([6]; 10^5 CFU.mL^−1, 24 h): >0.70 mM.mL^−1 |
